Experimental data as given in PubChem BioAssay AID256 (DTP/NCI, 2004).
Where “and” joins values, the source holds several entries; their conditions need not be identical. Identical values can stand only once. Inconclusive results and toxic doses are left out. How the source made its calls: active means survival T/C of 150% or more; inactive means T/C below 125% in these data.

Test system: CD2F1 mice, L1210 leukemia ip, survival T/C
Assay: NCI In Vivo Anticancer Drug Screen. Data for tumor model L1210 Leukemia (intraperitoneal) in CD2F1 (CDF1) mice
Details: higher = longer survival
How it was run: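 Vehicle-treated tumor-bearing mice served as controls (C) for compound-treated mice (T). Reported figure is T divided by C.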

Measured: T/C

O=C(O)CCCc1ccc(N(CCCl)CCCl)cc1
inactive: endpoint: mean survival time, dose: 0.5 mg/kg/injection, schedule: Q01DX009 (ip), vehicle: Klucel (hydroxypropylcellulose) (HPC) 103 % of control and 108 % of control | endpoint: mean survival time, dose: 1.0 mg/kg/injection, schedule: Q01DX009 (ip), vehicle: Klucel (hydroxypropylcellulose) (HPC) 94 % of control and 100 % of control and 106 % of control | endpoint: mean survival time, dose: 1.0 mg/kg/injection, schedule: Q03HX024 (ip), vehicle: other 102 % of control | endpoint: mean survival time, dose: 1.56 mg/kg/injection, schedule: Q01DX009 (ip), vehicle: saline 101 % of control and 103 % of control | endpoint: mean survival time, dose: 2.0 mg/kg/injection, schedule: Q01DX009 (ip), vehicle: Klucel (hydroxypropylcellulose) (HPC) 97 % of control and 100 % of control and 103 % of control | endpoint: mean survival time, dose: 2.0 mg/kg/injection, schedule: Q01DX009 (ip), vehicle: saline with Tween-80 106 % of control | endpoint: mean survival time, dose: 2.0 mg/kg/injection, schedule: Q01DX009 (oral), vehicle: other 102 % of control | endpoint: mean survival time, dose: 2.0 mg/kg/injection, schedule: Q03HX008 (ip), vehicle: other 101 % of control | endpoint: mean survival time, dose: 2.0 mg/kg/injection, schedule: Q03HX016 (ip), vehicle: other 103 % of control | endpoint: mean survival time, dose: 2.0 mg/kg/injection, schedule: Q03HX024 (ip), vehicle: other 105 % of control | endpoint: mean survival time, dose: 3.13 mg/kg/injection, schedule: Q01DX009 (ip), vehicle: saline 119 % of control and 110 % of control | endpoint: mean survival time, dose: 3.75 mg/kg/injection, schedule: Q01DX009 (ip), vehicle: Klucel (hydroxypropylcellulose) (HPC) 102 % of control | endpoint: mean survival time, dose: 4.0 mg/kg/injection, schedule: Q01DX001 (ip), vehicle: saline with Tween-80 91 % of control | endpoint: mean survival time, dose: 4.0 mg/kg/injection, schedule: Q01DX001 (oral), vehicle: other 95 % of control | endpoint: mean survival time, dose: 4.0 mg/kg/injection, schedule: Q01DX009 (ip), vehicle: Klucel (hydroxypropylcellulose) (HPC) 116 % of control and 101 % of control and 111 % of control | endpoint: mean survival time, dose: 4.0 mg/kg/injection, schedule: Q01DX009 (ip), vehicle: other 114 % of control | endpoint: mean survival time, dose: 4.0 mg/kg/injection, schedule: Q01DX009 (ip), vehicle: saline with Tween-80 117 % of control and 103 % of control | endpoint: mean survival time, dose: 4.0 mg/kg/injection, schedule: Q01DX009 (oral), vehicle: other 96 % of control | endpoint: mean survival time, dose: 4.0 mg/kg/injection, schedule: Q01DX009 (sc), vehicle: other 102 % of control | endpoint: mean survival time, dose: 4.0 mg/kg/injection, schedule: Q03HX008 (ip), vehicle: other 102 % of control | endpoint: mean survival time, dose: 4.0 mg/kg/injection, schedule: Q03HX016 (ip), vehicle: other 110 % of control | endpoint: mean survival time, dose: 4.0 mg/kg/injection, schedule: Q03HX024 (ip), vehicle: other 111 % of control | endpoint: mean survival time, dose: 4.0 mg/kg/injection, schedule: Q04DX003 (ip), vehicle: saline with Tween-80 102 % of control | endpoint: mean survival time, dose: 4.0 mg/kg/injection, schedule: Q04DX003 (oral), vehicle: other 107 % of control | endpoint: mean survival time, dose: 6.25 mg/kg/injection, schedule: Q01DX009 (ip), vehicle: saline 106 % of control and 110 % of control | endpoint: mean survival time, dose: 7.5 mg/kg/injection, schedule: Q01DX007 (ip), vehicle: saline 108 % of control | endpoint: mean survival time, dose: 7.5 mg/kg/injection, schedule: Q01DX009 (ip), vehicle: saline 114 % of control | endpoint: mean survival time, dose: 7.5 mg/kg/injection, schedule: Q03DX003 (ip), vehicle: saline 104 % of control | endpoint: mean survival time, dose: 7.5 mg/kg/injection, schedule: Q04DX003 (ip), vehicle: saline 102 % of control | endpoint: mean survival time, dose: 8.0 mg/kg/injection, schedule: Q01DX001 (ip), vehicle: saline with Tween-80 96 % of control | endpoint: mean survival time, dose: 8.0 mg/kg/injection, schedule: Q01DX001 (oral), vehicle: other 96 % of control | endpoint: mean survival time, dose: 8.0 mg/kg/injection, schedule: Q01DX009 (ip), vehicle: Klucel (hydroxypropylcellulose) (HPC) 113 % of control and 117 % of control and 105 % of control | endpoint: mean survival time, dose: 8.0 mg/kg/injection, schedule: Q01DX009 (ip), vehicle: other 120 % of control | endpoint: mean survival time, dose: 8.0 mg/kg/injection, schedule: Q01DX009 (ip), vehicle: saline with Tween-80 117 % of control and 101 % of control | endpoint: mean survival time, dose: 8.0 mg/kg/injection, schedule: Q01DX009 (oral), vehicle: other 106 % of control | endpoint: mean survival time, dose: 8.0 mg/kg/injection, schedule: Q01DX009 (sc), vehicle: other 111 % of control | endpoint: mean survival time, dose: 8.0 mg/kg/injection, schedule: Q03HX008 (ip), vehicle: other 119 % of control | endpoint: mean survival time, dose: 8.0 mg/kg/injection, schedule: Q03HX016 (ip), vehicle: other 118 % of control | endpoint: mean survival time, dose: 8.0 mg/kg/injection, schedule: Q04DX003 (ip), vehicle: other 118 % of control | endpoint: mean survival time, dose: 8.0 mg/kg/injection, schedule: Q04DX003 (ip), vehicle: saline with Tween-80 109 % of control | endpoint: mean survival time, dose: 8.0 mg/kg/injection, schedule: Q04DX003 (oral), vehicle: other 96 % of control | endpoint: mean survival time, dose: 10.0 mg/kg/injection, schedule: Q01DX009 (ip), vehicle: saline with Tween-80 118 % of control | endpoint: mean survival time, dose: 12.5 mg/kg/injection, schedule: Q01DX009 (ip), vehicle: saline 119 % of control | endpoint: mean survival time, dose: 15.0 mg/kg/injection, schedule: Q01DX007 (ip), vehicle: saline 122 % of control | endpoint: mean survival time, dose: 15.0 mg/kg/injection, schedule: Q01DX009 (ip), vehicle: Klucel (hydroxypropylcellulose) (HPC) 108 % of control | endpoint: mean survival time, dose: 15.0 mg/kg/injection, schedule: Q01DX009 (ip), vehicle: saline with Tween-80 120 % of control | endpoint: mean survival time, dose: 15.0 mg/kg/injection, schedule: Q01DX009 (ip), vehicle: saline 120 % of control | endpoint: mean survival time, dose: 15.0 mg/kg/injection, schedule: Q03DX003 (ip), vehicle: saline 117 % of control | endpoint: mean survival time, dose: 15.0 mg/kg/injection, schedule: Q04DX003 (ip), vehicle: saline 111 % of control | endpoint: mean survival time, dose: 16.0 mg/kg/injection, schedule: Q01DX001 (ip), vehicle: other 102 % of control | endpoint: mean survival time, dose: 16.0 mg/kg/injection, schedule: Q01DX001 (ip), vehicle: saline with Tween-80 107 % of control | endpoint: mean survival time, dose: 16.0 mg/kg/injection, schedule: Q01DX001 (oral), vehicle: other 93 % of control | endpoint: mean survival time, dose: 16.0 mg/kg/injection, schedule: Q01DX001 (sc), vehicle: other 104 % of control | endpoint: mean survival time, dose: 16.0 mg/kg/injection, schedule: Q01DX009 (ip), vehicle: Klucel (hydroxypropylcellulose) (HPC) 114 % of control and 97 % of control | endpoint: mean survival time, dose: 16.0 mg/kg/injection, schedule: Q01DX009 (ip), vehicle: saline with Tween-80 118 % of control and 97 % of control | endpoint: mean survival time, dose: 16.0 mg/kg/injection, schedule: Q01DX009 (oral), vehicle: other 120 % of control | endpoint: mean survival time, dose: 16.0 mg/kg/injection, schedule: Q01DX009 (sc), vehicle: other 120 % of control | endpoint: mean survival time, dose: 16.0 mg/kg/injection, schedule: Q04DX003 (ip), vehicle: other 115 % of control | endpoint: mean survival time, dose: 16.0 mg/kg/injection, schedule: Q04DX003 (ip), vehicle: saline with Tween-80 120 % of control | endpoint: mean survival time, dose: 16.0 mg/kg/injection, schedule: Q04DX003 (oral), vehicle: other 103 % of control | endpoint: mean survival time, dose: 16.0 mg/kg/injection, schedule: Q08DX002 (ip), vehicle: other 101 % of control | endpoint: mean survival time, dose: 30.0 mg/kg/injection, schedule: Q01DX007 (ip), vehicle: saline with Tween-80 90 % of control | endpoint: mean survival time, dose: 30.0 mg/kg/injection, schedule: Q01DX009 (ip), vehicle: Klucel (hydroxypropylcellulose) (HPC) 110 % of control | endpoint: mean survival time, dose: 30.0 mg/kg/injection, schedule: Q01DX009 (ip), vehicle: saline 124 % of control | endpoint: mean survival time, dose: 30.0 mg/kg/injection, schedule: Q04DX003 (ip), vehicle: saline 114 % of control | endpoint: mean survival time, dose: 32.0 mg/kg/injection, schedule: Q01DX001 (ip), vehicle: other 108 % of control | endpoint: mean survival time, dose: 32.0 mg/kg/injection, schedule: Q01DX001 (ip), vehicle: saline with Tween-80 117 % of control and 109 % of control | endpoint: mean survival time, dose: 32.0 mg/kg/injection, schedule: Q01DX001 (oral), vehicle: other 96 % of control | endpoint: mean survival time, dose: 32.0 mg/kg/injection, schedule: Q01DX001 (sc), vehicle: other 108 % of control | endpoint: mean survival time, dose: 32.0 mg/kg/injection, schedule: Q01DX009 (oral), vehicle: other 102 % of control | endpoint: mean survival time, dose: 32.0 mg/kg/injection, schedule: Q04DX003 (ip), vehicle: other 120 % of control | endpoint: mean survival time, dose: 32.0 mg/kg/injection, schedule: Q04DX003 (oral), vehicle: other 103 % of control | endpoint: mean survival time, dose: 32.0 mg/kg/injection, schedule: Q08DX002 (ip), vehicle: other 108 % of control | endpoint: mean survival time, dose: 64.0 mg/kg/injection, schedule: Q01DX001 (ip), vehicle: other 118 % of control | endpoint: mean survival time, dose: 64.0 mg/kg/injection, schedule: Q01DX001 (oral), vehicle: other 102 % of control | endpoint: mean survival time, dose: 64.0 mg/kg/injection, schedule: Q01DX001 (sc), vehicle: other 114 % of control | endpoint: mean survival time, dose: 64.0 mg/kg/injection, schedule: Q04DX003 (oral), vehicle: other 93 % of control | endpoint: mean survival time, dose: 64.0 mg/kg/injection, schedule: Q08DX002 (ip), vehicle: other 112 % of control | endpoint: median survival time, dose: 3.13 mg/kg/injection, schedule: Q01DX009 (ip), vehicle: saline 114 % of control and 105 % of control | endpoint: median survival time, dose: 6.25 mg/kg/injection, schedule: Q01DX009 (ip), vehicle: saline 114 % of control and 105 % of control | endpoint: median survival time, dose: 12.5 mg/kg/injection, schedule: Q01DX009 (ip), vehicle: saline 117 % of control

CC(=C(C#N)C#N)c1ccccc1
inactive: endpoint: mean survival time, dose: 12.5 mg/kg/injection, schedule: Q01DX009 (ip), vehicle: saline with Tween-80 92 % of control | endpoint: mean survival time, dose: 25.0 mg/kg/injection, schedule: Q01DX009 (ip), vehicle: saline with Tween-80 89 % of control | endpoint: mean survival time, dose: 50.0 mg/kg/injection, schedule: Q01DX009 (ip), vehicle: saline with Tween-80 87 % of control
